{"source": "patent US7399607B2", "about": "“Fluorescence polarization assays for determining clostridial toxin activity” (priority 2004, dated 2008)"}
{"system": "BoNT/A", "assay_type": "biochemical", "details": "not given"}
{"substance": "GFP-SNAP25(134-206)-His6-C-Alexa Fluor® 594", "depolarization during proteolysis": "approximately 20 mP"}
{"system": "BoNT/A", "details": "cited from earlier work"}
{"substance": "SNKTRINEANQRATKML [Peptide D7N]", "Relative Rate": 0.23}
{"substance": "SNKTRIDEANQRATKXL [Peptide M16X]", "Relative Rate": 1.20}
{"substance": "SNKTRIDEANQRATKML [[1-17]]", "Relative Rate": 1.00}
{"substance": "SNKTRIDEBNQRATKML [Peptide A9B]", "Relative Rate": 0.38}
{"substance": "SNKTRIDEANQRATKAL [Peptide M16A]", "Relative Rate": 0.38}
{"substance": "SNKTRIDEANQRABKML [Peptide T14B]", "Relative Rate": 1.20}
{"substance": "SNKTRIDEANQRATK [[1-15]]", "Relative Rate": 0.03}
{"substance": "SNKTRIDEANQRASKML [Peptide T14S]", "Relative Rate": 0.26}
{"substance": "SNKTRIDEANBRATKML [Peptide Q11B]", "Relative Rate": 0.25}
{"substance": "SNKTRIDEANNRATKML [Peptide Q11N]", "Relative Rate": 0.66}
{"substance": "SNKTRIDEANQRBTKML [Peptide A13B]", "Relative Rate": 0.79}
{"substance": "SNKTRIDQANQRATKML [Peptide E8Q]", "Relative Rate": 2.08}
{"substance": "SNKTRIDEAAQRATKML [Peptide N10A]", "Relative Rate": 0.06}
{"substance": "SNKTRIDEANQRATAML [Peptide K15A]", "Relative Rate": 0.12}
{"substance": "SNKTRIDEANQRATKM [[1-16]]", "Relative Rate": 1.17}
{"substance": "SNKTRIDEANARATKML [Peptide Q11A]", "Relative Rate": 0.19}
